Data from patent US11015223B2, “Methods for determining response to a hypomethylating agent” (THE REGENTS OF THE UNIVERSITY OF CALIFORNIA, priority 2013, dated 2021).
Where “and” joins values, the source holds several entries; their conditions need not be identical. Equal entries are not always repeated.

What was measured:
MDS patients [1] = conditions: cited from earlier work
MDS patients [2] = assay: Response to treatment by IWG response criteria revised in 2006 (CR/PR/HI = responders); type: in vivo, human
From the text: A total of 213 MDS patients treated azacitidine or decitabine were included in this study. Samples were obtained from patients treated at the Dana-Farber Cancer Institute (n=42), the MD Anderson Cancer Center (n=104), and as part of the DACO-020 (ADOPT) clinical trial of decitabine (n=67). All samples were collected with patient consent under IRB-approved protocols in accordance with the Declaration of Helsinki. There were no significant differences in baseline patient characteristics by treatment site (Table 1).
Response to treatment was assessed using IWG response criteria revised in 2006. Patients with either a complete response (CR), partial response (PR), or hematologic improvement (HI) were considered as ‘responders’ (R, n=100, 47%). whereas patients described as having ‘no response’, ‘stable disease’, ‘progressive disease’, ‘death’ before response assessment, or ‘not evaluable’ were considered ‘non-responders’ (NR, […], 53%).
Categorical variables were compared using a Fisher exact test, while continuous variables were compared using a Wilcoxon rank-sum test. A Cochran-Mantel-Haenszel (CMH) test was used to test for differences in response rate by mutational status controlling for treatment. Unadjusted and adjusted logistic regression models were used to predict response to therapy. A stepwise algorithm for logistic regression was also utilized to determine a final model; candidate variables considered for inclusion were all mutations, treatment, IPSS classification, age, and sex. The Hosmer and Lemeshow goodness-of-fit test was used to assess model fit for logistic regression models. Overall survival was calculated from the time of treatment to the time of death from any cause or was censored at the date last known alive. Unadjusted and adjusted Cox regression models were constructed for overall survival. A stepwise regression algorithm for Cox regression models was used including the same candidate variables as in the logistic regression modeling. Classification trees were also created using the Rpart package in R version 2.11.1 to classify responders based on mutational status. Cross-validation was used for tree pruning. All p-values reported are two-sided and considered significant at the 0.05 level. No adjustments were made for multiple hypothesis testing.

[3] = Peripheral blood CBC of recipient mice in competitive murine bone marrow transplant; type: in vivo
Protocol: (§1) Age-matched Tet2^−/−; Mx-Cre^+ and Tet2^+/+; Mx-Cre^+ donor animals (CD45.2) were treated with pIpC (15 μg/g IP) for three non-consecutive days to induce excision of exon 3 of Tet2. Donor bone marrow was harvested two weeks post-pIpC and mixed in a 1:2 ratio with bone marrow harvested from 45.1 WT donors (B6.SJL-Ptprca Pepcb/BoyJ; Jackson), and was then transplanted into 45.1 recipients for a total of 1 million cells/recipient. Peripheral blood engraftment was assessed by FACS at two weeks post-transplant, at which point recipient mice were divided into treatment groups (n=7 per group) and treated with either 5-azacitidine (aza; 2.5 mg/kg IP; Santa Cruz Biotechnology) or vehicle control on the following schedule: two weeks on, two weeks off. Peripheral blood chimerism and CBC were assessed following each round of treatment. Percent 45.2 chimerism was calculated for each time point. Error bars indicate standard error of the mean (SEM) for each group, and p-values for the last time point were calculated using an unpaired two-sample t-test.
The observed association between TET2 mutations and response to treatment could be mediated directly by TET2 loss-of-function or by indirect or cell extrinsic effects. To test whether TET2 loss-of-function can sensitize cells to hypomethylating agents, we performed a competitive murine bone marrow transplant experiment using hematopoietic cells from Tet2-null and wildtype littermate donors. […] There was no difference in pretreatment peripheral blood counts between groups. Treatment with AZA (2.5 mg/kg M-F×2 weeks) or vehicle was begun on day 20 post-transplant and repeated starting on day 48.

Tet2-null cells = assay: Competitive murine bone marrow transplant, percent 45.2 chimerism in peripheral blood; type: in vivo
Protocol: as §1
The observed association between TET2 mutations and response to treatment could be mediated directly by TET2 loss-of-function or by indirect or cell extrinsic effects. […]

[4] = 2.5 mg/kg M-F x 2 weeks, regardless of genotype, vs vehicle
[5] = murine bone marrow transplant experiment

Structure (SMILES): Nc1ncn([C@@H]2O[C@H](CO)[C@@H](O)[C@H]2O)c(=O)n1 [azacitidine, 5-azacytidine]
- MDS patients with TET2 mutations who responded to treatment (MDS patients [1]; TET2 mutations detected by Sanger sequencing): 11 of 13
- response rate (MDS patients [1]; overall cohort of 86 patients): 52%
- Non-Responders (NR/SD/PD/Died/NE) (%) (MDS patients [2]; all patients on the treatment): (52) %
- Non-Responders (NR/SD/PD/Died/NE) N (MDS patients [2]; all patients on the treatment): 22 N
- Responders (CR/PR/HI) N (MDS patients [2]; all patients on the treatment): 20 N
- Responders (CR/PR/HI) (%) (MDS patients [2]; all patients on the treatment, listed as Azacitidine Alone): (48) %
- Response N (MDS patients [2]; patients with ASXL1 mutation): 11 N
- Response N (MDS patients [2]; patients with ATRX mutation, listed as Aza Alone): 0 (0) N and 0 N
- Response N (MDS patients [2]; patients with BCOR mutation): 2 N
- Response N (MDS patients [2]; patients with CBL mutation): 1 N
- Response N (MDS patients [2]; patients with DNMT3A mutation): 3 N
- Response N (MDS patients [2]; patients with ETV6 mutation): 2 N
- Response N (MDS patients [2]; patients with EZH2 mutation): 3 N
- Response N (MDS patients [2]; patients with IDH1 mutation): 1 N
- Response N (MDS patients [2]; patients with IDH2 mutation): 2 N
- Response N (MDS patients [2]; patients with JAK2 mutation): 2 N
- Response N (MDS patients [2]; patients with KDM3A mutation, listed as Aza Alone): 0 (0) N and 0 N
- Response N (MDS patients [2]; patients with KDM6B mutation): 1 N
- Response N (MDS patients [2]; patients with KRAS mutation): 1 N
- Response N (MDS patients [2]; patients with MAML1 mutation, listed as Aza Alone): 0 (0) N and 0 N
- Response N (MDS patients [2]; patients with NF1 mutation): 2 N
- Response N (MDS patients [2]; patients with NOTCH1 mutation): 2 N
- Response N (MDS patients [2]; patients with NOTCH2 mutation): 2 N
- Response N (MDS patients [2]; patients with NPM1 mutation, listed as Aza Alone): 0 (0) N and 0 N
- Response N (MDS patients [2]; patients with NRAS mutation): 3 N
- Response N (MDS patients [2]; patients with PHF6 mutation): 1 N
- Response N (MDS patients [2]; patients with PRPF8 mutation): 1 N
- Response N (MDS patients [2]; patients with PTPN11 mutation, listed as Aza Alone): 0 (0) N and 0 N
- Response N (MDS patients [2]; patients with RUNX1 mutation): 3 N
- Response N (MDS patients [2]; patients with SCAF11 mutation): 1 N
- Response N (MDS patients [2]; patients with SF3B1 mutation): 3 N
- Response N (MDS patients [2]; patients with SRSF2 mutation): 3 N
- Response N (MDS patients [2]; patients with TET2 mutation): 6 N
- Response N (MDS patients [2]; patients with TLR1 mutation, listed as Aza Alone): 0 (0) N and 0 N
- Response N (MDS patients [2]; patients with TP53 mutation): 6 N
- Response N (MDS patients [2]; patients with U2AF1 mutation): 4 N
- Response N (MDS patients [2]; patients with ZRSR2 mutation): 1 N
- WBC levels [3, 4]: significant decreases
- hematocrit [3, 4]: significant decreases
- total number of mature granulocytes [3, 5]: increasing
- level of representation in peripheral blood (Tet2-null cells; Tet2-null cells, after two cycles, 2.5 mg/kg IP): significantly decreased level of representation
- clonal advantage associated with loss of Tet2 function (Tet2-null cells; [5]): preferentially decreased
